# Assay results: ChEMBL document CHEMBL1141992, “Synthesis and radiopharmacological evaluation of 2'-(4-fluorophenyl)-21-[18F]fluoro-20-oxo-11beta,17alpha-dihydroxy-pregn-4-eno[3,2-c]pyrazole as potential glucocorticoid receptor ligand for positron emission tomography (PET)” (Bioorg Med Chem Lett, 2005)
# Legend:
# [1] = Radioactivity expressed as percent injected dose per gram after single intravenous injection of 50 uCi after 5 min in rat heart;n =4; type: ADME; conditions: in vivo
# [2] = Radioactivity expressed as percent injected dose per gram after single intravenous injection of 50 uCi after 60 min in rat testis;n =4; type: ADME; conditions: in vivo, 1 h
# [3] = Radioactivity expressed as percent injected dose per gram after single intravenous injection of 50 uCi after 60 min in rat thymus;n =4; type: ADME; conditions: in vivo, 1 h
# [4] = Radioactivity expressed as percent injected dose per gram after single intravenous injection of 50 uCi after 5 min in rat fat;n =4; type: ADME; conditions: in vivo
# [5] = Radioactivity expressed as percent injected dose per gram after single intravenous injection of 50 uCi after 60 min in rat blood;n =4; type: ADME; conditions: in vivo, 1 h
# [6] = Radioactivity expressed as percent injected dose per gram after single intravenous injection of 50 uCi after 5 min in rat spleen;n =4; type: ADME, tissue-based; conditions: in vivo
# [7] = Activity distribution of compound in blocked (hydrocortisone) rat brain cortex after single iv injection of 0.9 mCi at 60 min after injection by ex vivo autoradiography; type: ADME, organism-based; conditions: 1 h
# [8] = Activity distribution of compound in blocked (hydrocortisone) rat brain pituitary after single iv injection of 0.9 mCi at 60 min after injection by ex vivo autoradiography; type: ADME, organism-based; conditions: 1 h
# [9] = Radioactivity expressed as percent injected dose per gram after single intravenous injection of 50 uCi after 60 min in rat liver;n =4; type: ADME, tissue-based; conditions: in vivo, 1 h
# [10] = Radioactivity expressed as percent injected dose per gram after single intravenous injection of 50 uCi after 5 min in rat blood;n =4; type: ADME; conditions: in vivo
# [11] = Radioactivity expressed as percent injected dose per gram after single intravenous injection of 50 uCi after 60 min in rat kidney;n =4; type: ADME, tissue-based; conditions: in vivo, 1 h
# [12] = Radioactivity expressed as percent injected dose per gram after single intravenous injection of 50 uCi after 5 min in rat femur;n =4; type: ADME, tissue-based; conditions: in vivo
# [13] = Radioactivity expressed as percent injected dose per gram after single intravenous injection of 50 uCi after 60 min in rat heart;n =4; type: ADME; conditions: in vivo, 1 h
# [14] = Radioactivity expressed as percent injected dose per gram after single intravenous injection of 50 uCi after 5 min in rat brain;n =4; type: ADME, tissue-based; conditions: in vivo
# [15] = Radioactivity expressed as percent injected dose per gram after single intravenous injection of 50 uCi after 5 min in rat kidney;n =4; type: ADME, tissue-based; conditions: in vivo
# [16] = Radioactivity expressed as percent injected dose per gram after single intravenous injection of 50 uCi after 5 min in rat liver;n =4; type: ADME, tissue-based; conditions: in vivo
# [17] = Radioactivity expressed as percent injected dose per gram after single intravenous injection of 50 uCi after 5 min in rat adrenals;n =4; type: ADME, tissue-based, Adrenal gland; conditions: in vivo
# [18] = Radioactivity expressed as percent injected dose per gram after single intravenous injection of 50 uCi after 5 min in rat pituitary;n =4; type: ADME; conditions: in vivo
# [19] = Radioactivity expressed as percent injected dose per gram after single intravenous injection of 50 uCi after 5 min in rat muscle;n =4; type: ADME, tissue-based, Muscle tissue; conditions: in vivo
# [20] = Radioactivity expressed as percent injected dose per gram after single intravenous injection of 50 uCi after 60 min in rat femur;n =4; type: ADME, tissue-based; conditions: in vivo, 1 h
# [21] = Radioactivity expressed as percent injected dose per gram after single intravenous injection of 50 uCi after 60 min in rat pituitary;n =4; type: ADME; conditions: in vivo, 1 h
# [22] = Radioactivity expressed as percent injected dose per gram after single intravenous injection of 50 uCi after 5 min in rat lung;n =4; type: ADME; conditions: in vivo
# [23] = Radioactivity expressed as percent injected dose per gram after single intravenous injection of 50 uCi after 60 min in rat lung;n =4; type: ADME; conditions: in vivo, 1 h
# [24] = Activity distribution of compound in blocked (hydrocortisone) rat brain plexus choroideus after single iv injection of 0.9 mCi at 60 min after injection by ex vivo autoradiography; type: ADME, organism-based; conditions: 1 h
# [25] = Activity distribution of compound in blocked (hydrocortisone) rat brain inferior coliculi after single iv injection of 0.9 mCi at 60 min after injection by ex vivo autoradiography; type: ADME, organism-based; conditions: 1 h
# [26] = Radioactivity expressed as percent injected dose per gram after single intravenous injection of 50 uCi after 5 min in rat brown fat;n =4; type: ADME; conditions: in vivo
# [27] = Activity distribution of compound in blocked (hydrocortisone) rat brain hippocampus after single iv injection of 0.9 mCi at 60 min after injection by ex vivo autoradiography; type: ADME, organism-based; conditions: 1 h
# [28] = Radioactivity expressed as percent injected dose per gram after single intravenous injection of 50 uCi after 60 min in rat hard glands;n =4; type: ADME; conditions: in vivo, 1 h
# [29] = Activity distribution of compound in blocked (hydrocortisone) rat brain cerebellar nuclei after single iv injection of 0.9 mCi at 60 min after injection by ex vivo autoradiography; type: ADME, organism-based; conditions: 1 h
# [30] = Radioactivity expressed as percent injected dose per gram after single intravenous injection of 50 uCi after 60 min in rat pancreas;n =4; type: ADME; conditions: in vivo, 1 h
# [31] = Radioactivity expressed as percent injected dose per gram after single intravenous injection of 50 uCi after 60 min in rat fat;n =4; type: ADME; conditions: in vivo, 1 h
# [32] = Radioactivity expressed as percent injected dose per gram after single intravenous injection of 50 uCi after 5 min in rat hard glands;n =4; type: ADME; conditions: in vivo
# [33] = Radioactivity expressed as percent injected dose per gram after single intravenous injection of 50 uCi after 5 min in rat thymus;n =4; type: ADME; conditions: in vivo
# [34] = Radioactivity expressed as percent injected dose per gram after single intravenous injection of 50 uCi after 5 min in rat pancreas;n =4; type: ADME; conditions: in vivo
# [35] = Radioactivity expressed as percent injected dose per gram after single intravenous injection of 50 uCi after 60 min in rat brain;n =4; type: ADME, tissue-based; conditions: in vivo, 1 h
# [36] = Radioactivity expressed as percent injected dose per gram after single intravenous injection of 50 uCi after 60 min in rat spleen;n =4; type: ADME, tissue-based; conditions: in vivo, 1 h
# [37] = Radioactivity expressed as percent injected dose per gram after single intravenous injection of 50 uCi after 60 min in rat muscle;n =4; type: ADME, tissue-based, Muscle tissue; conditions: in vivo, 1 h
# [38] = Radioactivity expressed as percent injected dose per gram after single intravenous injection of 50 uCi after 5 min in rat testis;n =4; type: ADME; conditions: in vivo
# [39] = Radioactivity expressed as percent injected dose per gram after single intravenous injection of 50 uCi after 60 min in rat adrenals;n =4; type: ADME, tissue-based, Adrenal gland; conditions: in vivo, 1 h
# [40] = Radioactivity expressed as percent injected dose per gram after single intravenous injection of 50 uCi after 60 min in rat brown fat;n =4; type: ADME; conditions: in vivo, 1 h
smiles,measurement,setting,value
C[C@]12Cc3cnn(-c4ccc(F)cc4)c3C=C1CCC1C2[C@@H](O)C[C@@]2(C)C1CC[C@]2(O)C(=O)C[18F] (stereo not given in full),ID/g,[1],0.63%
same,ID/g,[2],0.07%
same,ID/g,[3],0.4%
same,ID/g,[4],0.82%
same,ID/g,[5],0.08%
same,ID/g,[6],0.4%
same,ID/g,[7],0.7%
same,ID/g,[8],1.36%
same,ID/g,[9],2.15%
same,ID/g,[10],0.06%
same,ID/g,[11],0.87%
same,ID/g,[12],0.34%
same,ID/g,[13],0.66%
same,ID/g,[14],0.26%
same,ID/g,[15],0.66%
same,ID/g,[16],1.3%
same,ID/g,[17],1.23%
same,ID/g,[18],0.52%
same,ID/g,[19],0.31%
same,ID/g,[20],0.22%
same,ID/g,[21],0.82%
same,ID/g,[22],0.6%
same,ID/g,[23],0.66%
same,ID/g,[24],0.83%
same,ID/g,[25],0.89%
same,ID/g,[26],0.8%
same,ID/g,[27],0.59%
same,ID/g,[28],0.55%
same,ID/g,[29],0.94%
same,ID/g,[30],0.85%
same,ID/g,[31],0.31%
same,ID/g,[32],1.09%
same,ID/g,[33],0.37%
same,ID/g,[34],0.85%
same,ID/g,[35],0.25%
same,ID/g,[36],0.44%
same,ID/g,[37],0.32%
same,ID/g,[38],0.18%
same,ID/g,[39],1.96%
same,ID/g,[40],0.91%
